The text below walks through data of patent US9943398B2, “Increasing survival of free tissue grafts and flaps using phosphodiesterase type 5 (PDE5) inhibitors” (New York University, priority 2012, dated 2018).

Common to all, as to assay type: in vivo, mice
Assay [1] deals with explanted fat grafts (Tie2/LacZ donor, wild type FVB recipient). The assay is described as follows: Quantitative PCR of 2-day old explanted fat grafts after sildenafil pretreatment of donor tissue. Particulars: qPCR. The protocol: (§1) To examine the effect of PDE5 inhibitor pretreatment of donor graft tissue on graft take and survival, transfer of syngeneic fat between Tie2/LacZ mice (donor) and wild type FVB mice (recipient) was performed. A schematic representation of the protocol is depicted in FIG. 1A. Since the transgenic mice express the lacZ gene in their blood vessels, donor and recipient vasculature can be independently visualized and assessed based on the presence or absence of lacZ gene expression.
Prior to harvesting the inguinal fat pads from 6-12 week old transgenic FVB Tie2/LacZ mice, the pads were infiltrated with small volumes of PBS (control) and 35 nM sildenafil citrate in PBS and allowed to dwell for 15-20 minutes. The pads were harvested, washed in PBS, and finely minced to simulate conditions of human harvest. The minced fat was centrifuged at 3000 rpm for 3 minutes and the aqueous and oil layers removed leaving the adipose layer for injection. The dorsum of syngeneic wildtype FVB mice was used as the recipient bed for the processed lipoaspirate, as previously described (Sultan et al., “Human Fat Grafting Alleviates Radiation Skin Damage in a Murine Model,” Plast Reconstr Surg 128:363-72 (2011) and Thanik et al., “A Murine Model for Studying Diffusely Injected Human Fat,” Plast Reconstr Surg 124:74-81 (2009), which are hereby incorporated by reference in their entirety). Autologous fat was infiltrated using a blunt tip cannula through a 2-mm caudal midline incision. The infiltration cannula was advanced and withdrawn in a fan like pattern in the dorsal subdermal plane of the mouse, to maintain an even layer over the entire dorsal surface.

Assay [2] deals with fat grafts. The assay is described as follows: Vascular flux (Doppler) in grafted fat tissue after transplantation. The protocol: as §1
(§2) Prior to harvesting the inguinal fat pads from 6-12 week old transgenic FVB Tie2/LacZ mice, the pads were infiltrated with small volumes of PBS (control) and 35 nM sildenafil citrate in PBS and allowed to dwell for 15-20 minutes. The pads were harvested, washed in PBS, and finely minced to simulate conditions of human harvest. The minced fat was centrifuged at 3000 rpm for 3 minutes and the aqueous and oil layers removed leaving the adipose layer for injection. The dorsum of syngeneic wildtype FVB mice was used as the recipient bed for the processed lipoaspirate, as previously described (Sultan et al., “Human Fat Grafting Alleviates Radiation Skin Damage in a Murine Model,” Plast Reconstr Surg 128:363-72 (2011) and Thanik et al., “A Murine Model for Studying Diffusely Injected Human Fat,” Plast Reconstr Surg 124:74-81 (2009), which are hereby incorporated by reference in their entirety). […]

Assay [3] deals with fat grafts. The experiment in a line: Graft volume maintenance and graft survival analysis after fat transfer. The protocol: as §1, §2
Assay [4] deals with fat grafts. The assay is described as follows: Graft weight retention of explanted fat grafts. Conditions: 8 weeks post transplant. The protocol: as §1, §2
Where [5] appears, read: 2-day old explanted grafts, 35 nM sildenafil citrate pretreatment vs PBS/saline control.
The mark [6] stands for this setting: explanted tissue, sildenafil pretreatment vs saline control.

Some results are limits rather than exact numbers.

As for `CCCc1nn(C)c2c(=O)nc(-c3cc(S(=O)(=O)N4CCN(C)CC4)ccc3OCC)[nH]c12` [sildenafil, 5-{2-Ethoxy-5-[(4-methyl-1-piperazinyl)sulfonyl]phenyl}-1-methyl-3-propyl-1,4-dihydro-7H-pyrazolo[4,3-d]pyrimidin-7-one 2-hydroxy-1,2,3-propanetricarboxylate (1:1)], in assay [1] (setting [5]), the “LacZ expression (donor-derived endothelial cell function/viability)” value is listed as “increased” and the “PECAM-1 expression (donor-derived endothelial cell function/viability)” value is given as “increased”. Also, in assay [1] (setting [6]), the “expression of the inflammatory gene SDF-1α” value is reported as “decreased” and the “expression of the inflammatory gene VCAM” value is on record as “decreased”. Further, in the assay with fat grafts [2] (1 and 2 weeks post grafting, vs control), the “revascularization within the core of the graft” value is listed as “significant improvement in revascularization”. In addition, the “restoration of blood flow within the grafted tissues (vascular flux)” value with fat grafts [2] (first two weeks following transplantation, vs saline control) is listed as “faster restoration of blood flow”. Moreover, in the assay with fat grafts [3] (over 12 weeks after transfer, vs saline treated grafts, which are resorbed quickly), the “graft tissue volume after transfer” value was “maintained virtually all of its volume over time”. In addition, the graft survival entry in the assay with fat grafts [3] (survival analysis vs saline-treated control grafts and devascularized (trypsin-inactivated) grafts) was “survive significantly longer”. The “enhanced graft retention (percent graft weight retention) compared to saline treated grafts” value in the assay with fat grafts [4] was over 2 fold.
